In patent publication US20080293699A1, “Inhibitors of thapsigargin-induced cell death” (priority 2007, published 2008):

Columns and labels:
[1] = tested on: PC12 rat pheochromocytoma cells; experiment: Thapsigargin-induced death of PC12 cells (undifferentiated and differentiated), ATP content assay; type: cell-based; design: key to Cytoprotective activity, PC12 (Result): +indicates >50% rescue of cell viability relative to untreated cells not exposed to thapsigargin at compound concentration of ≦25 μM; E indicates compound enhanced thapsigargin-induced death
Experimental: (§1) In addition to CSM14.1 cells, when tested at 25 μM, Compound 5962123 protected by >50% against thapsigargin-induced death of several tumor cell lines (HeLa human cervical cancer, SW1 melanoma cell, PPC1, human prostate cancer), mouse neural stem cell C17.2 (both differentiated [neuronal phenotype] and non-differentiated [stem cell phenotype]) as determined by ATP content assay, and primary rat cortical neurons as determined by microscopy assay measuring the percentage of NeuN-immunopositive cells with either normal or apoptotic nuclear morphology (Hoechst dye staining).
(§2) For PC12, cells were stimulated with 20 ng/ml NGF for five days; for C17.2, cells were stimulated with serum reduction, and 1% N2 incubation for three days; for CSM14.1, cells were cultured at 39° C. for 5-7 days.

[2] = tested on: protein phosphatase 2B (Calcineurin); experiment: In vitro phosphatase assay with immunoprecipitated ASK1 (ser 967 site) as substrate; type: biochemical; settings: 100 μM
[3] = tested on: differentiated CSM14.1 cells; experiment: ATP content assay, thapsigargin-treated differentiated CSM14.1 cells; type: cell-based, rat
Experimental: Of the 26 compounds shown in Table 9, 16 were subsequently confirmed to protect differentiated CSM14.1 cells from TG-induced cell death. For these assays, CSM14.1 cells were differentiated by culture in 2% FBS for 7 days at non-permissive temperature of 39° C. […] CSM14.1 cells were plated at 1,500 cells per well in 96-well plates, and cultured overnight at 32° C. (permissive temperature; FIG. 14, left) or at 39° C. (non-permissive temperature, FIG. 14, right) for 7 days. […] ATP content was measured, and data were expressed as a percentage of control cells treated only with 1% DMSO (mean ±SD; n=3). Two percent FBS was used during differentiation, but all assays were performed in 10% FBS.
as §2
CSM14.1 cells were plated at 1,500 cells per well in 96-well plates and cultured at 39° C. (non-permissive temperature) for 7 days. […] ATP content was measured and data were expressed as a percentage of control cells treated with only 1% DMSO.

phospho-eIF2α = experiment: Immunoblotting of eIF2α phosphorylation in thapsigargin-treated CSM14.1 cells; type: cell-based, rat; settings: thapsigargin-stimulated CSM14.1, listed as CID-2878746
Excerpt: After confirming the pathway selectivity of compounds, additional downstream assays can be performed to map the specific signal transduction pathway inhibited by the compounds. In this regard, various antibody reagents are commercially available for assessing the status of the three major pathways known to be activated by ER stress: (1) PERK, (2) Ire1, and (3) ATF6 (Xu et al., J. Clinical Invest., 115:2656-2664, 2005). Immunoblotting experiments can be performed to assess the expression or phosphorylation (using phospho-specific antibodies) of marker proteins in these pathways. […] Cell lysates were prepared and analyzed by SDS-PAGE/immunoblotting using antibodies specific for phospho-c-Jun, phospho-eIF2α, phospho-p38 MAPK, and tubulin (a loading control). […] After two hrs, cell lysates were prepared, normalized for protein content, and either analyzed by SDS-PAGE/immunoblotting using anti-p38-MAPK pan-reactive antibody or phospho-specific antibody with ECL-based detection, followed by densitometry analysis of x-ray films, normalizing phosphor-p38 MAPK relative to total p38 MAPK, or analyzed using a meso-scale instrument from MSD and a procedure in which total p38 MAPK is captured on plates, and the relative amounts of phosphorylated protein were determined using phospho-specific antibody (MSD catalog #K15112D1). […]

[4] = tested on: primary rat cortical neurons; experiment: Thapsigargin-induced death of primary cortical neurons, microscopy assay (NeuN, Hoechst); type: cell-based
Experimental: as §1
Description of secondary screens. The secondary screens used to characterize compound 5962123 (many of which were used to characterize all 11 benzodiazepines) are outlined above. Thirty-one secondary screens have been used to date to characterize compound 5962123. […] Finally, compound 2878746 inhibits thapsigargin-induced cell death of rat primary cortical neurons (identified by staining with NeuN), as determined by counting apoptotic […] (NeuN)-positive cells stained with the DNA-binding fluorochrome Hoechst dye to identify cells with condensed nuclear morphology indicative of apoptosis and evidence of neurite retraction.

CCN(CC)c1ccc(C2Nc3ccccc3NC3=C2C(=O)CC(c2ccccc2)C3)cc1 (stereo not drawn) [Compound 5962123, 6-(4-diethylaminophenyl)-9-phenyl-5,6,8,9,10,11-hexahydrobenzo[c][1,5]benzodiazepin-7-one]
Protection of PC12 cells from thapsigargin-induced cell death ([1]; 25 μM, undifferentiated or differentiated as stated, ATP content assay): does not protect
Effect on thapsigargin-treated undifferentiated PC12 cells ([1]; undifferentiated PC12): paradoxical cell death-promoting activity
Cytoprotective activity, PC12 (Result) ([1]; undifferentiated, thapsigargin 15 μM, ATP content, compound ≦25 μM): E
Activity of protein phosphatase 2B (Calcineurin) [2]: did not affect
Protection of differentiated CSM14.1 cells from thapsigargin-induced death ([3]; compound 25 μM with 10 μM thapsigargin, Salubrinal 100 μM): confirmed
Cytoprotective activity, CSM 14.1 diff (Result) ([3]; thapsigargin 15 μM, compound ≦25 μM): + (+indicates >50% rescue of cell viability relative to untreated cells not exposed to thapsigargin at compound concentration of ≦25 μM)
Phosphorylation of eIF2alpha (Ser 51) (phospho-eIF2α): not inhibited
Protection against thapsigargin-induced death, primary rat cortical neurons ([4]; 25 μM, microscopy, NeuN-immunopositive cells, Hoechst nuclear morphology): > 50%
Inhibition of thapsigargin-induced cell death of rat primary cortical neurons ([4]; counting apoptotic NeuN-positive cells, Hoechst dye): inhibits
